Test results reported in patent US20250032465A1, “METHODS OF TREATING CNS DISORDERS” (HANGZHOU HIGHLIGHTLL PHARMACEUTICAL CO., LTD, priority 2021, published 2025).

Tests used:
TYK2 [1] = target: T1, TYK2 (Homo sapiens, UniProt P29597); assay: TYK2 biochemical test (33P-ATP filter binding, Reaction Biology); conditions: read-out: Inhibition of TYK2 (IC50)
T1 construct: purchased Reaction Biology Corp, Malvern, PA (contract testing)
Experimental: The tests were conducted by Reaction Biology Corp, Malvern, PA (Anastassiadis et al. Nat Biotechnol. 2011; 29(11):1039-45). The step is briefly described as follows, using the basic reaction buffer: 20 mM Hepes (pH 7.5), 10 mM MgCl2, 1 mM EGTA, 0.02% Brij35, 0.02 mg/ml BSA, 0.1 mM Na3VO4, 2 mM DTT and 1% DMSO. The required cofactor was added to each kinase reaction respectively. Each reaction was performed according to the following reaction steps: 1) Preparing the designated substrate in the newly prepared basic reaction buffer; 2) Transferring the required cofactor to the above matrix solution; 3) Transferring the designated kinase to the substrate solution and mixing well slightly; 4) Transferring a compound of Formula (I) in DMSO to the kinase reaction mixture with Acoustic technique (Echo550; nanoliter range), culturing for 20 minutes at room temperature; 5) Introducing ^33P-ATP (specific activity: 10 μCi/μl) to the reaction mixture to trigger a reaction; 6) Culturing at room temperature and conducting a kinase reaction for 2 hours; 7) Plotting the reaction on P81 ion exchange paper; and 8) Testing the kinase activity with a filter binding assay. The results shown in Table 1 indicate that compounds of Formulae (I)-(III) are potent and selective TYK2/JAK1 inhibitors.

TYK2 [2] = target: T1, TYK2; assay: TYK2 cellular ELISA assay using NK92 cells (IL-12 and IL-18 stimulated IFNγ excretion); format: cell-based; conditions: IL-12 2 ng/ml, IL-18 5 ng/ml, 24 hours
Experimental: This testing was performed to test cellular TYK2 activity using IL-12 and IL-18 stimulated IFNγ excretion assay in NK92 cells. The testing was performed according to the following procedure: 1) Replace NK92 cell media containing IL-2 with media not containing IL-2, maintain overnight; 2) Plate NK92 cells to 96-well plate at density of ˜150,000 cell/well; 3) Add different concentrations of test article to wells, maintain in incubator at 37° C. and 5% CO2 for 1 hour; 4) Add IL-12 (final concentration: 2 ng/ml) and IL-18 (final concentration: 5 ng/ml) to stimulate for 24 hours in the above incubator; 5) After 24 hours, centrifuge at 2000 rpm for 5 min, take the supernatant and analyze according to instructions of the ELISA kit. In this assay, compounds of Formulae (II) and (III) had IC50<100 nM.

JAK1 = target: T2, JAK1 (Homo sapiens, UniProt P23458); assay: JAK1 cellular ELISA assay using PBMC cells (IL-6 stimulated STAT3 phosphorylation); format: cell-based; conditions: IL-6 100 ng/ml, 25 min
T2 construct: purchased Reaction Biology Corp, Malvern, PA (contract testing)
Experimental: This testing was performed to test cellular JAK1 activity using the IL-6 stimulated STAT3 phosphorylation assay in PBMC cells. The testing was performed according to the following procedure: 1) Plate PBMC cells to 96-well plate at density of ˜300,000 cell/well; 2) Add different concentrations of test article to wells, maintain in incubator at 37° C. and 5% CO2 for 1 hour; 3) Add IL-6 (final concentration: 100 ng/ml) to stimulate for 25 min in the above incubator; 4) After stimulation, transfer the suspension to 1.5 mL tube, centrifuge at 200 g for 5 min, collect cells, add 100 μL 1× lysate, lyse on ice for 1 hour; 5) Centrifuge at 4° C. and 12000 rpm for 10 min, take the supernatant and analyze according to instructions of the ELISA kit. In this assay, compounds of Formulae (II) and (III) had IC50<300 nM.

HT22 cells = assay: Viability of HT22 cells with LPS but without BV2 microglia; format: cell-based; conditions: 1.7 μM, presence or absence of LPS (200 ng/ml, 96 h)
Experimental: This testing was performed to test the ability of compounds to alleviate the injury of HT22 cells induced by LPS activated BV2 cells. The testing was performed according to the following procedure: 1) Microglia BV2 cells were co-cultured on transwell inserts with HT22hippocampal neurons. BV2 cells were stimulated with LPS (200 ng/ml) for 96 h after treatment with a compound of Formula (II) at 1.7 μM. 2) HT22 cells were pre-treated with a compound of Formula (II) at 1.7 μM for 30 min and subsequently stimulated with LPS (200 ng/ml) for 96 h. 3) BV2 cells were treated using LPS. IL-6, TNF and MCP-1 productions were measured in cell supernatants using CBA assay.
The protective effects of a compound of Formula (II) on microglial activation-induced neuronal death were evaluated in a BV2 microglia/HT22 neuron co-culture. Following stimulation of BV2 microglia with LPS (200 ng/mL), there was a marked reduction in the viability of co-cultured HT22 cells.

T1 sequence (P29597 whole entry): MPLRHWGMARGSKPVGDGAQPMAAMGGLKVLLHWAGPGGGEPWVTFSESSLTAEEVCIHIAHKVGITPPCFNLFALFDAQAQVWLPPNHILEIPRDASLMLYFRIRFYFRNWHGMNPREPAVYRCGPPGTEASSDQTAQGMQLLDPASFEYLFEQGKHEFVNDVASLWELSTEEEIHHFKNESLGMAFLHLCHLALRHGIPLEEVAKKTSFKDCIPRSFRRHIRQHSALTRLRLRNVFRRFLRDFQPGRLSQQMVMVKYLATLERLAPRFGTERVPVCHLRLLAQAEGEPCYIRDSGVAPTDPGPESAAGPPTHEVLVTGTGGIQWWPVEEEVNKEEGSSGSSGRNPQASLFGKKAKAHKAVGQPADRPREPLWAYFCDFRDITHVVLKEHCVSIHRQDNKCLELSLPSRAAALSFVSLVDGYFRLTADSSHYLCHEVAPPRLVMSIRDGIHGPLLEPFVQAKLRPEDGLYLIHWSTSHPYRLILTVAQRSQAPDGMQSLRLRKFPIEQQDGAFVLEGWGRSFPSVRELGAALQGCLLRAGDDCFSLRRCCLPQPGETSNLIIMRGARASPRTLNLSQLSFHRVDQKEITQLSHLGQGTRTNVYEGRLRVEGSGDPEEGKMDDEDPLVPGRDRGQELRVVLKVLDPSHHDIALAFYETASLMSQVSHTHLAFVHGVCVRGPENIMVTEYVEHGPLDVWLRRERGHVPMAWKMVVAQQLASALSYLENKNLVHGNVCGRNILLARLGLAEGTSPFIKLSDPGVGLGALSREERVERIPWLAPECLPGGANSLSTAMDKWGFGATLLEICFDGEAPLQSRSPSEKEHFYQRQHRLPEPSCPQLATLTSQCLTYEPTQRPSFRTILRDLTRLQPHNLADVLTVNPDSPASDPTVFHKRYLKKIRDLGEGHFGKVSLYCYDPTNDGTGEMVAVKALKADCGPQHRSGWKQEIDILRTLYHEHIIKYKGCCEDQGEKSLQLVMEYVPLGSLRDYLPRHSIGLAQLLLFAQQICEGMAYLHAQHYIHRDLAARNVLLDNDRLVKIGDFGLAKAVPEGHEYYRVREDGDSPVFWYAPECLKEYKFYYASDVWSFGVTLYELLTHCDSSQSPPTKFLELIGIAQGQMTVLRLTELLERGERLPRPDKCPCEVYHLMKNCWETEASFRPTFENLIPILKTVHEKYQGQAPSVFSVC
T2 sequence (P23458 whole entry): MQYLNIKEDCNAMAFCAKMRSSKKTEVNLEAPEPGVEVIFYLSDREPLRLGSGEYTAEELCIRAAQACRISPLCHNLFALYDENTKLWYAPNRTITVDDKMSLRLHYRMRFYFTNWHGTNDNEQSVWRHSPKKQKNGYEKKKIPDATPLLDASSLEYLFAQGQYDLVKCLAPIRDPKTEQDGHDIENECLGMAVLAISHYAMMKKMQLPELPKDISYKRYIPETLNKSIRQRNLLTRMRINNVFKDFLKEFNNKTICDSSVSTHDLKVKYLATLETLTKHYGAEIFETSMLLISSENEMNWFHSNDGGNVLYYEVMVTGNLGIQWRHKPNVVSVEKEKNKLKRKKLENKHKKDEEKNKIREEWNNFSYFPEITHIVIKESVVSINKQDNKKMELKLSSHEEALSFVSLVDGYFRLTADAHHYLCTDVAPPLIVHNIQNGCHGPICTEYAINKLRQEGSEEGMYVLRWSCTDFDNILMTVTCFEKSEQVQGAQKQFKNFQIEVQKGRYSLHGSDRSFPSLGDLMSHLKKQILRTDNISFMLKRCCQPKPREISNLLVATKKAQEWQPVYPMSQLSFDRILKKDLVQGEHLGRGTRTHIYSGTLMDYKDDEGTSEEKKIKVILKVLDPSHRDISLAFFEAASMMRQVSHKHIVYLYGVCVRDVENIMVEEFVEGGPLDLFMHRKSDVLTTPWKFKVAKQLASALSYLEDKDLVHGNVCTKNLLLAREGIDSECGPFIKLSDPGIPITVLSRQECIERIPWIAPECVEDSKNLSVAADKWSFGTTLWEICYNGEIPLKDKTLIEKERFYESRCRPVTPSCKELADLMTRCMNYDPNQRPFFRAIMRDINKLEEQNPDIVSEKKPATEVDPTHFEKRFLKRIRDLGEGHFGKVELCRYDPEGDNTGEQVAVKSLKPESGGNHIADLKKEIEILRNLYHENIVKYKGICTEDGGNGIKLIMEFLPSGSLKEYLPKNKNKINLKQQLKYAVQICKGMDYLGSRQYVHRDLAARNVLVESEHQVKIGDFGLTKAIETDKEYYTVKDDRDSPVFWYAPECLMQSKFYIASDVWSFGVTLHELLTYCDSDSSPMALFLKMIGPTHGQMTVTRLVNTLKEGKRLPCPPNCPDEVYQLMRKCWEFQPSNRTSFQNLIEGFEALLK

Cc1nc2cnc3ccoc3c2n1[C@H]1CC[C@H](CC#N)OC1 [Formula (II)]
IC50 (TYK2 [1]): < 10 nM
IC50 (TYK2 [2]): < 100 nM
IC50 (JAK1): < 300 nM
Viability of HT22 cells (HT22 cells): did not affect the viability
